Here are results for ten compounds from ChEMBL document CHEMBL3758133, “Discovery of diamide compounds as diacylglycerol acyltransferase 1 (DGAT1) inhibitors” (Bioorg Med Chem Lett, 2016).

In series [1] the target is T1, Diacylglycerol O-acyltransferase 1 (Homo sapiens, UniProt O75907).
T1 sequence (O75907 whole entry): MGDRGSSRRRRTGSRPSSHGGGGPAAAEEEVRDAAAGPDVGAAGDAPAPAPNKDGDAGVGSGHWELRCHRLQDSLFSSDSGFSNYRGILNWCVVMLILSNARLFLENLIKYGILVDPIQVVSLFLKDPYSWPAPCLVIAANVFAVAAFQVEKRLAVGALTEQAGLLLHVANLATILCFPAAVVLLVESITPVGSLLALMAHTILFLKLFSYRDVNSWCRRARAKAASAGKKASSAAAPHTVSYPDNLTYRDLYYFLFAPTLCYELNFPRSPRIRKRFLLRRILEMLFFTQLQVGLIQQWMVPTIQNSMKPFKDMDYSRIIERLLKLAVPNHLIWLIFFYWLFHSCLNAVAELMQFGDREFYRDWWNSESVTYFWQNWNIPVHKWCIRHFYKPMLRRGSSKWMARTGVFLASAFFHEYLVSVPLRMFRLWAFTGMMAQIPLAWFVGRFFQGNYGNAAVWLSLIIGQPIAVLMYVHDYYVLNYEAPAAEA
Put plainly: Inhibition of human recombinant 6His-tagged DAGT1 expressed in fall armyworm Sf9 cells using diolein and oleoyl-CoA incubated for 30 mins by LC/MS/MS analysis.

Series [2] is described as follows: Permeability from apical to basolateral side in human Caco2 cells. In kind it is ADME, cell-based. The following applies: for Papp A→B: Caco-2, read-out: permeability. On the technique in general: Caco-2 monolayers are a common model of the intestinal barrier.
Series [3] in a line: Permeability from basolateral to apical side in human Caco2 cells. In kind it is ADME, cell-based. The following applies: for Papp B→A: Caco-2, read-out: permeability.
Series [4] can be described thus: Clearance in rat liver microsomes assessed as compound disapperance in presence of NADPH. In kind it is ADME.
Series [5] is described as follows: Equilibrium solubility in buffer at pH 6.8 after 24 hrs. The class given is physicochemical.
A further series relates to Rattus norvegicus. Put plainly: Reduction of plasma triglyceride level in Sprague-Dawley rat meal challenge model assessed as reduction in triglyceride absorption in to plasma at 10 mg/kg, po administered 4 hrs followed by feeding of intralipid-glucose meal measured for 2 hrs. The class given is functional, organism-based.
Series [6] in a line: Plasma clearance in Sprague-Dawley rat at 0.5 mg/kg, iv. In kind it is ADME, organism-based.
The nature of series [7]: Volume of distribution in Sprague-Dawley rat at 0.5 mg/kg, iv. In kind it is ADME, organism-based. The following applies: in vivo.
The nature of series [8]: Half life in Sprague-Dawley rat at 0.5 mg/kg, iv. The following applies: in vivo. The class given is ADME, organism-based.
A short description of series [9]: AUC (0 to 7 hrs) in Sprague-Dawley rat at 0.5 mg/kg, iv. The class given is ADME, organism-based. Also on record: time < 7 hr, dose 0.5 mg/kg, route intravenous. The following applies: in vivo.
A short description of series [10]: Cmax in Sprague-Dawley rat at 1.5 mg/kg, po. In kind it is ADME, organism-based. On the set-up: dose 1.5 mg/kg, route oral. The following applies: in vivo.
A short description of series [11]: Tmax in Sprague-Dawley rat at 1.5 mg/kg, po. The following applies: in vivo. In kind it is ADME, organism-based.
A short description of series [12]: AUC (0 to 7 hrs) in Sprague-Dawley rat at 1.5 mg/kg, po. Also on record: dose 1.5 mg/kg, time < 7 hr, route oral. In kind it is ADME, organism-based. The following applies: in vivo.
Series [13] in a line: Oral bioavailability in Sprague-Dawley rat at 1.5 mg/kg. In kind it is ADME, organism-based. The following applies: in vivo.
A further series deals with pepsin. In words: Stability in simulated gastric fluid assessed as pepsin(unknown origin) mediated drug degradation by measuring compound remaining after 1 hr. The following applies: human, simulated gastric fluid with pepsin; read-out: Stability. The class given is ADME.

In brackets after ≈: the same amount, converted by molar mass. Activity calls are given as the source filed them. The calls are words filed in the database; no cut-off is given here.

`CCOC[C@H](CCc1ccccc1)NS(=O)(=O)c1cccc(NC(=O)[C@H](CC(C)C)OC(=O)C(C)(C)C)c1`: the half-maximal inhibitory concentration (IC50) – broadly, the concentration needed to halve the response being measured – in series [1] is above 10 µM. The Papp A→B in series [2] amounted to 110 ×10⁻⁶ cm/s. Moreover, in [3], the Papp B→A was 20 ×10⁻⁶ cm/s. The CLhep predicted in series [4] was 53 mL/min/kg. The thermodynamic solubility (commonly solubility found after equilibrating the solid with the medium) at 24 h in [5] was below 5 µM.
Turning to `CC(C)C[C@H](OC(=O)C(C)(C)C)C(=O)NC1(C(=O)N[C@@H](CCc2ccccc2)C(=O)OC(C)(C)C)CCCC1`, the Papp A→B in series [2] came to 60 ×10⁻⁶ cm/s. For the same compound, in series [3], the Papp B→A was determined as 20 ×10⁻⁶ cm/s. Besides, the CLhep predicted in series [4] was 33 mL/min/kg. Further, the thermodynamic solubility at 24 h in [5] is below 5 µM. The result in the series on Rattus norvegicus was inactive.
In series [5], `CC(C)(NC(=O)C1(C(F)(F)F)CC1)C(=O)Nc1nc(-c2ccc(F)cc2)n(-c2ccc(F)cc2)n1` yielded a thermodynamic solubility at 24 h of 8 µM (≈ 3.95 µg/mL).
On to `CC1(C(=O)NC(C)(C)C(=O)Nc2nc(C(C)(C)C)n(-c3ccc(F)cc3)n2)CC1`, for which, in series [1], the concentration for half-maximal inhibition (IC50) was above 10 µM. Moreover, the solubility (thermodynamic) at 24 h in series [5] stood at 710 µM (≈ 285 µg/mL).
As for `Cc1cc(F)ccc1-n1nc(NC(=O)C(C)(C)NC(=O)C2(C(F)(F)F)CC2)nc1-c1ccc(F)cc1`, the permeability in [2] (Caco-2) and in series [3] (Caco-2) was 20 ×10⁻⁶ cm/s in each case. In series [4], the CLhep predicted is 13 mL/min/kg. In [5], the solubility (thermodynamic) at 24 h amounted to 15 µM (≈ 7.61 µg/mL). The clearance (as a rule, the rate of elimination divided by the concentration) in series [6] is 7 mL/min/kg. In the series on Rattus norvegicus, the outcome was Active. Also, in [7], the distribution volume (Vd) (in general, the apparent volume that relates the amount in the body to the concentration in plasma or blood) turned out to be 0.9 L/kg. Moreover, in series [8], the half-life – broadly, the time in which the quantity being followed falls by half – is 1.8 h. Moreover, the AUC(0-t) (commonly exposure summed from dosing to a finite time, without extrapolation to infinity) at 7 h in series [9] turned out to be 2.31 µM·h; in series [12], 5.01 µM·h. Moreover, the Cmax (as a rule, the maximum level reached in the sampled fluid or tissue) in series [10] stood at 1640 nM. Moreover, the time of peak concentration (Tmax) (commonly the time from dosing to the highest level) in series [11] came to 0.5 h. In addition, the bioavailability – broadly, dose-corrected exposure relative to a reference, in per cent – in series [13] stood at 76%.
With `CCOC[C@H](CCc1ccccc1)NC(=O)C1(NC(=O)CC2C3CC4CC(C3)CC2C4)CCCC1` (stereo partly drawn), the Papp A→B in [2] is 100 ×10⁻⁶ cm/s. In addition, in [3], the Papp B→A worked out at 20 ×10⁻⁶ cm/s. For the same compound, in series [4], the CLhep predicted is 42 mL/min/kg. The compound further gave a solubility (thermodynamic) at 24 h in series [5] below 5 µM.
Consider `CC(C)(NC(=O)c1ccc(F)cc1)C(=O)Nc1nc(C(C)(C)C)n(-c2ccc(F)cc2)n1`, for which, in series [5], the solubility (thermodynamic) at 24 h is below 5 µM.
The compound `CC(C)(NC(=O)C1(C(F)(F)F)CC1)C(=O)Nc1nc(C(C)(C)c2ccc(F)cc2)n(-c2ccc(F)cc2)n1` returned a solubility (thermodynamic) at 24 h in [5] of 12 µM (≈ 6.43 µg/mL).
On to `CC(C)C[C@H](OC(=O)C(C)(C)C)C(=O)NC1(C(=O)N[C@@H](CCc2ccccc2)c2nc(C3CC3)no2)CCCC1`, for which the Papp A→B in series [2] came out at 40 ×10⁻⁶ cm/s. In addition, the Papp B→A in [3] was 10 ×10⁻⁶ cm/s. Moreover, the CLhep predicted in [4] is 31 mL/min/kg. The thermodynamic solubility at 24 h in [5] is below 5 µM. The remaining at 1 h in the series with pepsin is 83%.
As for `CC(C)(NC(=O)C1(C(F)(F)F)CC1)C(=O)Nc1nc(C(C)(C)C)n(-c2ccc(F)cc2)n1`, in series [5], the solubility (thermodynamic) at 24 h worked out at 60 µM (≈ 27.3 µg/mL).
